Measurements from paper PMC4183613 (Journal of the American Chemical Society, 2014).

Columns and labels:
[1] = biological target: polycomb repressor complex 2 (PRC2) (human (purified from HeLa cells)) (UniProt Q15910); experiment: methyltransferase inhibition kinetics
[2] = biological target: polycomb repressor complex 2 (PRC2) (human (purified from HeLa cells)) (UniProt Q15910)
PRC2 [3] = biological target: T1, PRC2 (Homo sapiens, UniProt Q15910); experiment: PRC2 inhibition, scintillation methyltransferase assay with H3; assay type: biochemical; conditions: peptide 50 μM; substrate peptide 20 μM; 3H-SAM scintillation assay
[4] = biological target: polycomb repressor complex 2 (PRC2) (human (purified from HeLa cells)) (UniProt Q15910); remark: listed apart in the source
PRC2 [5] = biological target: T1, PRC2; assay type: biochemical; conditions: mononucleosome substrates; Figure 2C

T1 sequence (Q15910 whole entry): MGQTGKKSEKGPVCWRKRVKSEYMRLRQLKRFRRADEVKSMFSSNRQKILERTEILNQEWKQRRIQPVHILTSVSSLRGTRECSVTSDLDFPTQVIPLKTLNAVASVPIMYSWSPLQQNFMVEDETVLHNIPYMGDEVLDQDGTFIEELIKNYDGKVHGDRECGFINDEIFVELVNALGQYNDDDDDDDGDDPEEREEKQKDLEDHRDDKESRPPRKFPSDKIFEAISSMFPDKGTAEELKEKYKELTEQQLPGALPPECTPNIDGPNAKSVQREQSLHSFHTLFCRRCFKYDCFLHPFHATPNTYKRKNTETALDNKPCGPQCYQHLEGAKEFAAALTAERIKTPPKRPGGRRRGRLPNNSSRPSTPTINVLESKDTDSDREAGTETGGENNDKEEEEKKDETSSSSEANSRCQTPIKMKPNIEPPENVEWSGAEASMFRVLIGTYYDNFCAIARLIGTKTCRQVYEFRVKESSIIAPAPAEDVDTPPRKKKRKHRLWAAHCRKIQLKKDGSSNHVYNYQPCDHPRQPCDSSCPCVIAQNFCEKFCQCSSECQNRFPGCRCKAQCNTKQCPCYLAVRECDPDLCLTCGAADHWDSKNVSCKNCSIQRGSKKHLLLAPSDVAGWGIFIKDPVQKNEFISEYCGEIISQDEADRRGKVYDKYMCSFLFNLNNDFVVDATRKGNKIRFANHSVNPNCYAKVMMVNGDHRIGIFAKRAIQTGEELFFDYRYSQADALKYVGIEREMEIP
T1 sequence (O75530 whole entry partner): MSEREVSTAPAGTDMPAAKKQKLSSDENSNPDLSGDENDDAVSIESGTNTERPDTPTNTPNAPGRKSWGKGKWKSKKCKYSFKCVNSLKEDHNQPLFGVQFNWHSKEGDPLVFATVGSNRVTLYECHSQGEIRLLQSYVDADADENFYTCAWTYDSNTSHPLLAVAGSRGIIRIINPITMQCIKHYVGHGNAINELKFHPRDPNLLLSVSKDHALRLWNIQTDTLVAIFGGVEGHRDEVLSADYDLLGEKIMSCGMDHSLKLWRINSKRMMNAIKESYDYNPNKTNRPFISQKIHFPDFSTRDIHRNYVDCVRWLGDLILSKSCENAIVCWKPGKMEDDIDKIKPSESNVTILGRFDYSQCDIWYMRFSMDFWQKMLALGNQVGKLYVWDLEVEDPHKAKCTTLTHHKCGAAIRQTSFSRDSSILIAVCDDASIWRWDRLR
T1 sequence (Q15022 whole entry partner): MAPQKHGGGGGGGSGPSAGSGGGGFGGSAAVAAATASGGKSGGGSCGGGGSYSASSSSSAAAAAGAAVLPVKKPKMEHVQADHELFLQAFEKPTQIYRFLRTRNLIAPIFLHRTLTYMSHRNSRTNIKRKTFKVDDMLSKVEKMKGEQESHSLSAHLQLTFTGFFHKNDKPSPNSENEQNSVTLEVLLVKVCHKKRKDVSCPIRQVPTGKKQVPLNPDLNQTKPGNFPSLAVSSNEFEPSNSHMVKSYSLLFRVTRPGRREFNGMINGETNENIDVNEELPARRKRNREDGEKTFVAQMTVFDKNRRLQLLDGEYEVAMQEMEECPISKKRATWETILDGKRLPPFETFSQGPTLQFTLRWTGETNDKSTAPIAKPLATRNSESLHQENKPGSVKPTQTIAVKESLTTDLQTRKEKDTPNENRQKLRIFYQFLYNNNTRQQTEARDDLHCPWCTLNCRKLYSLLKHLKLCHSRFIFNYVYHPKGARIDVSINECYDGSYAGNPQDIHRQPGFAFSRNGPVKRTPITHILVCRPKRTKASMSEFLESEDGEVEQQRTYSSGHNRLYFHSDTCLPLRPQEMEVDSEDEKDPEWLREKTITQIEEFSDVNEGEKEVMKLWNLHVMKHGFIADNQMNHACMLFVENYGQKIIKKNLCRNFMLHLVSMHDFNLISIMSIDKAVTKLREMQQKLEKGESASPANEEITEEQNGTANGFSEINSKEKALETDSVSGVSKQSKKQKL
T1 sequence (Q09028 whole entry partner): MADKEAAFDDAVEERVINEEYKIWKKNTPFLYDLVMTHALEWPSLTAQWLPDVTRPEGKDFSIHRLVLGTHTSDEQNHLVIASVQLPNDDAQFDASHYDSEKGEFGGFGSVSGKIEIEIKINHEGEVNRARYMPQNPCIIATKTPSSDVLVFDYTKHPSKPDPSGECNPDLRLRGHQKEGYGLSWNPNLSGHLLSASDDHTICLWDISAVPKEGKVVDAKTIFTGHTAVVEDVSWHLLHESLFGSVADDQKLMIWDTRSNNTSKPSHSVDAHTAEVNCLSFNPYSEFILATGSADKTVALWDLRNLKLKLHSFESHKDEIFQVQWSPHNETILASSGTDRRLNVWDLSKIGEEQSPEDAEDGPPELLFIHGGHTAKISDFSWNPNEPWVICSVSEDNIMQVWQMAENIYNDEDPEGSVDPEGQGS

| inhibition of PRC2 methyltransferase activity, in words (PRC2 [3]) | Substance | also measured |
| --- | --- | --- |
|  | H3K27M mutant mononucleosome (from UniProt P84243 1-136) (complex) | Ki [1]: 2.1 nM; IC50 of inhibition of PRC2 methylation of mononucleosome substrates [2]: 2.6 nM |
| abolished inhibition | KAARXSAPSTGG [compound 17] |  |
| complete inhibition | KAARXSAPSTGG [compound 3] |  |
|  | H3.3(23-34) peptide 18 (trifluoro-methionine at residue 27) | IC50 of inhibition of PRC2 methyltransferase activity (Figure S2A) [4]: 11000 nM |
| modest loss in activity | KAARXSAPSTGG [compound 5] |  |
| modest loss of inhibition | KAARXSAPSTGG [compound 16] |  |
| did not provide measurable inhibition | KAARXSAPSTGG [compound 8] |  |
|  | H3 1-10-GGG-H3 21-37 [compound 39] | inhibition by bitopic constructs, in words (PRC2 [5]): outperformed longer linkers |
| did not provide measurable inhibition | KAARXSAPSTGG [compound 4] |  |
| did not provide measurable inhibition | KAARXSAPSTGG [compound 7] |  |
